Consider 17 compounds from patent publication US20120129811A1, “TRICYCLIC INHIBITORS OF PRO-MATRIX METALLOPROTEINASE ACTIVATION” (priority 2010, published 2012).

Where a name gives a salt, the structure may show the parent alone.

The target in assay [1] is T1, proMMP9(67-444;ΔFnII) (SEQ ID NO:5) (Homo sapiens, UniProt P14780, DEL216-390).
T1 construct: start methionine (N); made in house; host or cells: E. coli BL21(DE3) RIL
T1 sequence (P14780 with tags, fused parts or gaps DEL216-390): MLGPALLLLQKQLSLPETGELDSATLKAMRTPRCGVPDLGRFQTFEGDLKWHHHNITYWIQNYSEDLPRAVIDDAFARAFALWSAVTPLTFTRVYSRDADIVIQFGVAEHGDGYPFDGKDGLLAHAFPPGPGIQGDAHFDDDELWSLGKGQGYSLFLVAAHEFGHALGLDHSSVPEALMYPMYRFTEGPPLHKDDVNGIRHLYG
The experiment in a line: ThermoFluor binding assay with proMMP9(67-444;ΔFnII). The method, then:
(§1) The ThermoFluor® (TF) assay is a 384-well plate-based binding assay that measures thermal stability of proteins (Biomol Screen 2001, 6, 429-40; Biochemistry 2005, 44, 5258-66). The experiments were carried out using instruments available from Johnson & Johnson Pharmaceutical Research & Development, LLC. TF dye used in all experiments was […] (1,8-ANS) (Invitrogen: A-47).
(§2) Compounds were arranged in a pre-dispensed plate (Greiner Bio-one: 781280), wherein compounds were serially diluted in 100% DMSO across 11 columns within a series. Columns 12 and 24 were used as DMSO reference and contained no compound. For multiple compound concentration-response experiments, the compound aliquots (50 nL) were robotically predispensed directly into black 384-well polypropylene PCR microplates (Abgene: TF-0384/k) using a Cartesian Hummingbird liquid handler (DigiLab, Holliston, Mass.). Following compound dispense, protein and dye solutions were added to achieve the final assay volume of 3 μL. The assay solutions were overlayed with 1 μL of silicone oil (Fluka, type DC 200: 85411) to prevent evaporation.
(§3) Assay plates were robotically loaded onto a thermostatically controlled PCR-type thermal block and then heated from 40 to 90° C. at a ramp-rate of 1° C./min for all experiments. Fluorescence was measured by continuous illumination with UV light (Hamamatsu LC6) supplied via fiber optics and filtered through a band-pass filter (380-400 nm; >60D cutoff). Fluorescence emission of the entire 384-well plate was detected by measuring light intensity using a CCD camera (Sensys, Roper Scientific) filtered to detect 500±25 nm, resulting in simultaneous and independent readings of all 384 wells. A single image with 20-sec exposure time was collected at each temperature, and the sum of the pixel intensity in a given area of the assay plate was recorded vs temperature and fit to standard equations to yield the Tm (J Biomol Screen 2001, 6, 429-40).
(§4) Thermodynamic parameters necessary for fitting compound binding for each proMMP were estimated by differential scanning calorimetry (DSC) and from ThermoFluor® data. The heat capacity of unfolding for each protein was estimated from the molecular weight and from ThermoFluor® dosing data.
ThermoFluor® with proMMP9(67-444;ΔFnM (SEQ ID NO:5)
The protein sample preparations had to include a desalting buffer exchange step via a PD-10 gravity column (GE Healthcare). The desalting buffer exchange was performed prior to diluting the protein to the final assay concentration of 3.5 μM proMMP9(67-444;ΔFnII) (SEQ ID NO:5). The concentration of proMMP9(67-444;ΔFnII) (SEQ ID NO:5) was determined spectrophotometrically based on a calculated extinction coefficient of ε280=33900 M^−1 cm^−1, a calculated molecular weight of 22.6 kDa, and calculated pI of 5.20. ThermoFluor® reference conditions were defined as follows: 80 μg/mL (3.5 μM) proMMP9(67-444;ΔFnII) (SEQ ID NO:5), 50 μM 1,8-ANS, pH 7.0 Buffer (50 mM HEPES pH 7.0, 100 mM NaCl, 0.001% Tween-20, 2.5 mM MgCl2, 300 μM CaCl2). The thermodynamic parameters for proMMP9(67-444;ΔFnII) (SEQ ID NO:5) are as follows: Tm (° C.)=63 (+/−0.1), ΔUH(Tm)(cal mol^−1)=105000(+/−5000), ΔUS(Tm) (cal mol^−1 K^−1)=450, ΔUCp (cal mol^−1 K^−1)=2000.
On the technique in general: In DSF a fluorescence change marks the thermal transition of the protein.

Assay [2] concerns the target T2, proMMP9(20-445;ΔFnII) (SEQ ID NO:6) (Homo sapiens, UniProt P14780, DEL216-390).
T2 construct: start methionine (N); made in house; host or cells: E. coli BL21(DE3) RIL
T2 sequence (P14780 with tags, fused parts or gaps DEL216-390): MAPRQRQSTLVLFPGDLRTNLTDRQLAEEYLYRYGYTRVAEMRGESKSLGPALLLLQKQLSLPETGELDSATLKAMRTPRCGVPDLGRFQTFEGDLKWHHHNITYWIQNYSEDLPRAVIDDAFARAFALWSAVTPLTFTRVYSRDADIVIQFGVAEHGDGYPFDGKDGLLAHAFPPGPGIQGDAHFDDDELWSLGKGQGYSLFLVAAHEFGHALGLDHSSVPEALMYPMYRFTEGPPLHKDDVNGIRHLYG
The experiment in a line: ThermoFluor binding assay with proMMP9(20-445;ΔFnII). How it is done: as §1, §2, §3, §4
ThermoFluor® with proMMP9(20-445; ΔFnII (SEQ ID NO:6)
The protein sample preparations included a desalting buffer exchange step via a PD-10 gravity column (GE Healthcare). The desalting buffer exchange was performed prior to diluting the protein to the final assay concentration of 2.8 μM proMMP9(20-445;ΔFnII) (SEQ ID NO:6). The concentration of proMMP9(20-445;ΔFnII) (SEQ ID NO:6) was determined spectrophotometrically based on a calculated extinction coefficient of ε280=39880 M^−1 cm^−1, a calculated molecular weight of 28.2 kDa, and calculated pI of 5.5. ThermoFluor® reference conditions were define as follows: 80 μg/mL (2.8 μM) proMMP9(20-445;ΔFnII) (SEQ ID NO:6), 50 μM 1,8-ANS, pH 7.0 Buffer (50 mM HEPES pH 7.0, 100 mM NaCl, 0.001% Tween-20, 2.5 mM MgCl2, 300 μM CaCl2). The thermodynamic parameters for proMMP9(20-445;ΔFnII) (SEQ ID NO:6) are as follows: Tm (° C.)=72 (+/−0.1), ΔUH(Tm) (cal mol^−1)=160000(+/−5000), ΔUSTm (cal mol^−1 K^−1)=434, ΔUCp (cal mol^−1 K^−1)=2400.

Assay [3] concerns the target T3, full-length proMMP9(1-707) activation by catalytic MMP3 (Homo sapiens, UniProt P14780, R574P).
T3 construct: made in house; host or cells: proMMP9: HEK293 (secreted); MMP3: E. coli
The experiment in a line: proMMP9/MMP3 P126 Activation Assay. The class given is biochemical. The method, then: proMMP9/MMP3 P126 Activation Assay
The reaction volume was 50 μL. […] Reactivity of residual MMP3 towards P-126 substrate was minimal under these conditions.

T3 sequence (P14780 20-707 R574P): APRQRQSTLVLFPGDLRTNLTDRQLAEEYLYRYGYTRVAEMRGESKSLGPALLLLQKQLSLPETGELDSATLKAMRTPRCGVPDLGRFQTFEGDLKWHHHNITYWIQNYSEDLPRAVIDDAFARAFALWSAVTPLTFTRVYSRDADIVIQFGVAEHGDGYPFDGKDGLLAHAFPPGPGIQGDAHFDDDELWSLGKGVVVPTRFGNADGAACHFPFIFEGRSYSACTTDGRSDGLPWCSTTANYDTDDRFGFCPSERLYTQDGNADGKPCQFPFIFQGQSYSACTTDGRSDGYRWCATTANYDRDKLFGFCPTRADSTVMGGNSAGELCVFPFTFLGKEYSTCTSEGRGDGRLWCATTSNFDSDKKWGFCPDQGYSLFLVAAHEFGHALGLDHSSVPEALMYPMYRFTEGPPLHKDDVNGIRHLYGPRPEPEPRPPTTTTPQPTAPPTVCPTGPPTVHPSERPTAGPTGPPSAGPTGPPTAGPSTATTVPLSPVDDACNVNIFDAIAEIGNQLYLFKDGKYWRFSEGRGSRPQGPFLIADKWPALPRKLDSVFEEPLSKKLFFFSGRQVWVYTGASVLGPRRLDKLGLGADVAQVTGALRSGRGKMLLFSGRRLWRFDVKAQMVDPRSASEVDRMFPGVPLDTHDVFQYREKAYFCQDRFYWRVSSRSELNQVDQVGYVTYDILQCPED

The Kd is the concentration at which binding is half-saturated. The term IC50 denotes the concentration needed to halve the response being measured. `COc1ncccc1Nc1nc2c(ccc3c2ncn3C)s1` [Example 74, (2-Methoxy-pyridin-3-yl)-(6-methyl-6H-imidazo[4′,5′:3,4]-benzo[2,1-d]thiazol-2-yl)-amine.HCl]: the equilibrium dissociation constant (Kd) in assay [1] was found to be 3700 nM; in assay [2], 6 µM. It took 4700 nM to reach half-maximal inhibition in assay [3] (IC50).
For `COc1ccncc1Nc1nc2c(ccc3c2ncn3C)s1` [Example 149, (4-Methoxy-pyridin-3-yl)-(6-methyl-6H-imidazo[4′,5′:3,4]benzo[2,1-d]thiazol-2-yl)-amine.TFA], the Kd in assay [1] is 39 nM; in assay [2] it was 1 µM. The concentration for half-maximal inhibition (IC50) in assay [3] was determined as 110 nM.
Taken in the same sequence, the figures for `COc1c(Nc2nc3c(ccc4c3ncn4C)s2)cc(C(N)=O)cc1C(F)(F)F` [Example 53, 4-Methoxy-3-(6-methyl-6H-imidazo[4′,5′:3,4]benzo[2,1-d]thiazol-2-ylamino)-5-trifluoromethyl-benzamide.HCl] were 6200 nM, 4 µM and 4200 nM.
The corresponding values for `Cc1nc2ccc3sc(Nc4cc(F)ccc4OC(C)C)nc3c2n1C` [Example 140, (7,8-Dimethyl-8H-imidazo[4′,5′:3,4]benzo[2,1-d]thiazol-2-yl)-(5-fluoro-2-isopropoxy-phenyl)-amine.TFA] are 810 nM, greater than 95 µM and 410 nM.
Turning to `Cn1ncc2c3nc(Nc4cc(C(N)=O)ccc4OC(F)(F)F)sc3ccc21` [Example 113, 3-(6-Methyl-6H-3-thia-1,6,7-triaza-as-indacen-2-ylamino)-4-trifluoromethoxy-benzamide.TFA], the Kd is 1500 nM in assay [1] and 0.14 µM in assay [2]. Further, it took 250 nM to reach half-maximal inhibition in assay [3] (IC50).
The corresponding values for `COc1ccc(S(C)(=O)=O)cc1Nc1nc2c(ccc3[nH]ncc32)s1` [Example 110, (5-Methanesulfonyl-2-methoxy-phenyl)-(6H-3-thia-1,6,7-triaza-as-indacen-2-yl)-amine.TFA] are 340 nM, greater than 95 µM and 260 nM.
Consider `COc1ccc(N)cc1Nc1nc2c(ccc3c2ncn3C)s1` [Example 79, 4-Methoxy-N^3-(6-methyl-6H-imidazo[4′,5′:3,4]-benzo[2,1-d]thiazol-2-yl)-benzene-1,3-diamine.HCl], for which the Kd in assay [1] was 930 nM; in assay [2], 3.2 µM. Besides, the IC50 in assay [3] turned out to be 390 nM.
The corresponding values for `COc1ccc(Br)cc1Nc1nc2c(ccc3c2ncn3C)s1` [Example 69, (5-Bromo-2-methoxy-phenyl)-(6-methyl-6H-imidazo[4′,5%3,4]benzo[2,1-d]thiazol-2-yl)-amine.HCl] are 220 nM, 0.43 µM and 300 nM.
As to `COc1ccc(C#N)cc1Nc1nc2c(ccc3c2ccn3C)s1` [Example 85, 4-Methoxy-3-(6-methyl-6H-thiazolo[4,5-e]indol-2-ylamino)-benzonitrile.HCl], the results for the dissociation constant Kd in assay [1] and in assay [2] were 150 nM and 0.58 µM, respectively. For the same compound, the midpoint of inhibition in assay [3], the IC50, lay at 150 nM.
Turning to `Cc1nc2ccc3sc(Nc4cc(S(N)(=O)=O)ccc4OC(F)(F)F)nc3c2n1C` [Example 126, 3-(7,8-Dimethyl-8H-imidazo[4′,5′:3,4]-benzo[2,1-d]thiazol-2-ylamino)-4-trifluoromethoxy-benzenesulfonamide.TFA], the Kd is 2200 nM in assay [1] and greater than 95 µM in assay [2]. This compound also yielded an IC50 in assay [3] of 460 nM.
With `CC(C)Oc1ccncc1Nc1nc2c(ccc3c2ncn3C)s1` [Example 157, N-(4-Isopropoxypyridin-3-yl)-6-methyl-6H-imidazo[4′,5′:5,6]benzo[1,2-d]thiazol-2-amine.HCl], the equilibrium dissociation constant (Kd) in assay [1] was 18 nM; in assay [2], 0.35 µM. This compound showed an IC50 in assay [3] of 42 nM.
Taken in the same sequence, the figures for `COc1ccc(S(=O)(=O)N2CCCCC2)cc1Nc1nc2c(ccc3c2ncn3C)s1` [Example 80, [2-Methoxy-5-(piperidine-1-sulfonyl)-phenyl]-(6-methyl-6H-imidazo[4′,5′:3,4]-benzo[2,1-d]thiazol-2-yl)-amine.HCl] were 960 nM, 2.3 µM and 740 nM.
The corresponding values for `CC(C)Oc1ccc(S(N)(=O)=O)cc1Nc1nc2c(ccc3c2cnn3C)s1` [Example 102, 4-Isopropoxy-3-(6-methyl-6H-3-thia-1,6,7-triaza-as-indacen-2-ylamino)-benzenesulfonamide.TFA] are 680 nM, 0.25 µM and 390 nM.
Taken in the same sequence, the figures for `CCOc1ccccc1Nc1nc2c(ccc3sc(N)nc32)s1` [Example 3, N^7-(2-Ethoxy-phenyl)-benzo[2,1-d;3,4-d′]bisthiazole-2,7-diamine.TFA] were 1600 nM, 3.2 µM and 1400 nM.
`CC(C)Oc1ccc(F)cc1Nc1nc2c(ccc3ncn(CC(F)(F)F)c32)s1` [Example 142, (5-Fluoro-2-isopropoxy-phenyl)-[8-(2,2,2-trifluoro-ethyl)-8H-imidazo[4′,5′:3,4]-benzo[2,1-d]thiazol-2-yl]-amine.TFA]: the figures for the Kd in assay [1] and in assay [2] were 2400 nM and greater than 95 µM, respectively. The compound further came in with an IC50 in assay [3] of 1800 nM.
Taken in the same sequence, the figures for `NS(=O)(=O)c1ccc(OC(F)(F)F)c(Nc2nc3c(ccc4cnccc43)s2)c1` [Example 98, 3-(Thiazolo[4,5-f]isoquinolin-2-ylamino)-4-trifluoromethoxy-benzenesulfonamide.TFA] were 3000 nM, 7.6 µM and greater than 20000 nM.
The corresponding values for `CC(C)Oc1ccc(S(N)(=O)=O)cc1Nc1nc2c(ccc3cnccc32)s1` [Example 105, 4-Isopropoxy-3-(thiazolo[4,5-f]isoquinolin-2-ylamino)-benzenesulfonamide.TFA] are 800 nM, 65 µM and 850 nM.
